Counter-ions that a name gives are not always drawn.
Key:
[1] = tested on: mexB (PA) strain; assay: Combinational effect with antibacterial agent against Pseudomonas aeruginosa (Test Examples 2 and 4): mexB (PA) strain with LVFX, TC or AZT at 1/4 MIC, EC99; format: cell-based; conditions: mexB (PA) strain, Test Example 4; for EC99, combinational effect with AZT, mexB (PA): combined with AZT at 1/4 MIC; for EC99, combinational effect with LVFX, mexB (PA): combined with LVFX at 1/4 MIC; for EC99, combinational effect with TC, mexB (PA): combined with TC at 1/4 MIC
In short: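 P. aeruginosa mexB (PA) strain, lacking MexCD-OprJ, MexEF-OprN and MexXY and overexpressing MexAB-OprM, grown 16–20 h in CAMHB (10^4–5 CFU/well) with LVFX, TC or AZT at ¼ MIC plus test compound at 0–800 μM. Growth read as OD595; EC99 is the lowest compound concentration giving ≥99% growth inhibition.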

[2] = tested on: mexB (EC) strain; assay: Efflux ability inhibition effect on drug efflux pump MexB (Test Examples 1 and 3): proliferation (OD595) of mexB (EC) strain with EM or LVFX at 1/4 MIC, EC75; format: cell-based, Escherichia coli; conditions: for EC75, mexB (EC) strain, LVFX: combined with LVFX at 1/4 MIC; for EC75, mexB (EC) strain, EM: combined with EM at 1/4 MIC
Experimental: The efflux ability inhibition effect of the test compound on the drug efflux pump was evaluated using the bacterial proliferative ability in the presence of EM or LVFX as an index.
EM is a macrolide antibacterial agent and is a drug that is discharged outside the bacteria by MexB and MexY LVFX is a quinolone antibacterial agent and is a drug that is discharged outside the bacteria by MexB and MexY In a case where the test compound has an efflux ability inhibitory ability against the drug efflux pump, the proliferation of bacteria is suppressed by the combined use of EM or LVFX and the test compound, as compared with the case where EM or LVFX is used alone.
A mutant strain (hereinafter, referred to as an “mexB (EC) strain”) obtained by transferring the genes of the main multidrug efflux system MexAB-OprM of Pseudomonas aeruginosa described in Nature, 2013, Vol. 500, pp. 102 to 106 as a plasmid into Escherichia coli strains in which the acrB and tolC genes of the multidrug efflux system AcrAB-TolC were deleted as described in Journal of Infection and Chemotherapy 2008, Vol. 14, pp. 23 to 29, and a gene transfer strain (hereinafter, referred to as an “mexY (EC) strain”) of another main multidrug efflux system MexXY-OprM of Pseudomonas aeruginosa were used for the evaluation of test compounds.
In the mexB (EC) strain, an expression level of MexB of the drug efflux pump is accelerated, and in the mexY (EC) strain, an expression level of MexY of the drug efflux pump is accelerated.
For culturing each Escherichia coli strain, a 96-well plate (amount of culture medium per well: 100 μL) was used and Luria-Bertani broth (LB) culture medium was used. The inoculation amount of the bacteria was set to 10^4 to 5 CFU/well.
The mexB (EC) strain and the mexY (EC) strain were cultured for 16 to 20 hours in a culture medium to which EM or LVFX and test compounds at various concentrations (0 to 800 μM) were added, and the proliferation of the bacterial strains was evaluated by optical turbidity at 595 nm (OD595). The concentration of the antibacterial agents (EM and LVFX) in the culture medium were each set to ¼ of the minimum inhibitory concentration (MIC) (hereinafter, referred to as ¼ MIC) of the single antibacterial agent.
The proliferation of bacteria in a case where the antibacterial agent was added at the concentration of ¼ MIC in a case where the test compound was not added was measured, and compared with the proliferation of bacteria in a case where the test compound was contained, and the lowest concentration of the test compound at which the proliferation was inhibited by 75% or more was defined as the drug efflux pump inhibitory ability of the test compound as 75% inhibitory effect concentration (EC75).
The drug efflux pump inhibitory ability of each test compound in a case of being used in combination with the antibacterial agent against the mexB (EC) strain and the mexY (EC) strain was evaluated as follows according to the value of EC75. • S: EC75≤[…] • A: 12.5 μM<EC75≤25 μM • B: 25 μM<EC75≤100 μM • C: […]
In the same manner as in Test Example 1, the efflux ability inhibition effect of the test compound on the drug efflux pump was evaluated using the bacterial proliferation ability in the presence of EM or LVFX as an index.

[3] = tested on: S-3769 strain; assay: Combinational effect with antibacterial agent against Pseudomonas aeruginosa (Test Examples 2 and 4): S-3769 strain with AMK or GM at 1/4 MIC, EC99; format: cell-based; conditions: S-3769 strain, Test Example 4; for EC99, combinational effect with AMK, S-3769 strain: combined with AMK at 1/4 MIC; for EC99, combinational effect with GM, S-3769 strain: combined with GM at 1/4 MIC
In short: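 P. aeruginosa S-3769 (clinical isolate, MexY overexpressed) grown 16–20 h in CAMHB, 10^4 to 5 CFU/well, with AMK or GM at ¼ MIC plus test compound 0–800 μM. Growth read as OD595; EC99 is the lowest compound concentration giving ≥99% growth inhibition.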

[4] = Table 53, Test Example 3, same manner as Test Example 1
[5] = Table 51, Test Example 1, 16 to 20 hours culture, OD595

SMILES	EC99, combinational effect with AZT, mexB (PA) [1]	EC99, combinational effect with LVFX, mexB (PA) [1]	EC99, combinational effect with TC, mexB (PA) [1]	EC75, mexB (EC) strain, LVFX [2, 4]	EC99, combinational effect with AMK, S-3769 strain [3]	EC99, combinational effect with GM, S-3769 strain [3]	EC75, mexB (EC) strain, EM [2, 4]	EC75, mexB (EC) strain, LVFX [2, 5]	EC75, mexB (EC) strain, EM [2, 5]
C=C(Br)c1ccc(Cl)cc1CCN1CCC([C@@H](N)C(=O)N2CCN(Cc3c(F)cccc3OCC)CC2)CC1 [Example 545, Hydrobromide of (R)-2-amino-2-(1-(2-(1-bromovinyl)-5-chlorophenethyl)piperidin-4-yl)-1-(4-(2-ethoxy-6-fluorobenzyl)piperazin-1-yl)ethan-1-one]	B (25 μM<EC99≤100 μM)	B (25 μM<EC99≤100 μM)	B (25 μM<EC99≤100 μM)	A (12.5 μM<EC75≤25 μM)	S (EC99≤12.5 μM)	S (EC99≤12.5 μM)			
CSc1ccccc1CN1CCN(C(=O)[C@H](N)C2CCN(CCc3cc(Cl)ccc3-c3cccc(O)c3Cl)CC2)CC1.Cl [Example 613, Hydrochloride of (R)-2-amino-2-(1-(2-(2′,4-dichloro-3′-hydroxy-[1,1-biphenyl]-2-yl)ethyl)piperidin-4-yl)-1-(4-(2-(methylthio)benzyl)piperazin-1-yl) ethan-1-one]	S (EC99≤12.5 μM)	S (EC99≤12.5 μM)	S (EC99≤12.5 μM)	S (EC75≤12.5 M)	S (EC99≤12.5 μM)	A (12.5 μM<EC99≤25 μM)			
CCOc1cccnc1CN1CCN(C(=O)[C@H](N)C2CCN(CCc3cc(Cl)ccc3-c3ccccc3)CC2)CC1 [Example 508, Hydrobromide of (R)-2-amino-2-(1-(2-(4-chloro-[1,1-biphenyl]-2-yl)ethyl)piperidin-4-yl)-1-(4-((3-ethoxypyridin-2-yl)methyl)piperazin-1-yl)ethan-1-one]	B (25 μM<EC99≤100 μM)	C (100 μM<EC99)	B (25 μM<EC99≤100 μM)		S (EC99≤12.5 μM)	A (12.5 μM<EC99≤25 μM)	A (12.5 μM<EC75≤25 μM)		
Cn1ccnc1CN1CCN(C(=O)[C@H](N)C2CCN(CCc3cc(Cl)ccc3-c3ccccc3)CC2)CC1 [Example 525, Hydrobromide of (R)-2-amino-2-(1-(2-(4-chloro-[1,1-biphenyl]-2-yl)ethyl)piperidin-4-yl)-1-(4-((1-methyl-1H-imidazol-2-yl)methyl)piperazin-1-yl)ethan-1-one]	C (100 μM<EC99)	C (100 μM<EC99)	C (100 μM<EC99)	B (25 μM<EC75≤100 μM)	C (100 μM<EC99)	C (100 μM<EC99)			
CCOc1cccc(F)c1CN1CCN(C(=O)[C@H](N)C2CCN(CCc3cc(Cl)ccc3C#Cc3ccccc3)CC2)CC1 [Example 546, Hydrobromide of (R)-2-amino-2-(1-(5-chloro-2-(phenylethynyl)phenethyl)piperidin-4-yl)-1-(4-(2-ethoxy-6-fluorobenzyl)piperazin-1-yl)ethan-1-one]	C (100 μM<EC99)	C (100 μM<EC99)	A (12.5 μM<EC99≤25 μM)	A (12.5 μM<EC75≤25 μM)	S (EC99≤12.5 μM)	S (EC99≤12.5 μM)	A (12.5 μM<EC75≤25 μM)		
COc1ccccc1CN1CCN(C(=O)CN2CCN(CCc3cncs3)CC2)CC1 [Example 294, 1-(4-(2-Methoxybenzyl)piperazin-1-yl)-2-(4-(2-(thiazol-5-yl)ethyl)piperazin-1-yl)ethan-1-one and hydrochloride thereof]								A (12.5 μM<EC75≤25 μM)	
CCOc1cccc(/C=C/c2nnn[nH]2)c1CN1CCN(C(=O)[C@H](N)C2CCN(CCc3ccccc3)CC2)CC1 [Example 33, Hydrobromide of (R,E)-1-(4-(2-(2-(1H-tetrazol-5-yl)vinyl)-6-ethoxybenzyl)piperazin-1-yl)-2-amino-2-(1-phenethylpiperidin-4-yl) ethan-1-one]								B (25 μM<EC75≤100 μM)	B (25 μM<EC75≤100 μM)
CN(C)c1ccccc1CN1CCN(C(=O)CN2CCN(CCc3ccccc3)CC2)CC1 [Example 224, Hydrochloride of 1-(4-(2-(dimethylamino)benzyl)piperazin-1-yl)-2-(4-phenethylpiperazin-1-yl)ethan-1-one]								A (12.5 μM<EC75≤25 μM)	
COc1cccc(F)c1C(C)N1CCN(C(=O)CN2CCN(CCc3ccccc3)CC2)CC1.Cl (centres unmarked) [Example 269, hydrochloride of 1-(4-(1-(2-fluoro-6-methoxyphenyl)ethyl)piperazin-1-yl)-2-(4-phenethylpiperazin-1-yl)ethan-1-one]								A (12.5 μM<EC75≤25 μM)	A (12.5 μM<EC75≤25 μM)
CCOc1cccc(F)c1CN1CCN(C(=O)[C@H](N)C2CCN(CCc3nsc4ccccc34)CC2)CC1 [Example 160, Hydrobromide of (R)-2-amino-2-(1-(2-(benzo[d]isothiazol-3-yl)ethyl)piperidin-4-yl)-1-(4-(2-ethoxy-6-fluorobenzyl)piperazin-1-yl)ethan-1-one]								A (12.5 μM<EC75≤25 μM)	A (12.5 μM<EC75≤25 μM)
CCOc1cccc(F)c1CN1CCN(C(=O)[C@H](N)C2CCN(CCc3ccccc3N)CC2)CC1 [Example 146, Hydrobromide of (R)-2-amino-2-(1-(2-aminophenethyl)piperidin-4-yl)-1-(4-(2-ethoxy-6-fluorobenzyl)piperazin-1-yl) ethan-1-one]									A (12.5 μM<EC75≤25 μM)
CCOc1cccc(F)c1CN1CCN(C(=O)[C@H](N)C2CCN(CCc3cccc(O)c3)CC2)CC1 [Example 130, Hydrochloride of (R)-2-amino-1-(4-(2-ethoxy-6-fluorobenzyl)piperazin-1-yl)-2-(1-(3-hydrophenethyl)piperidin-4-yl) ethan-1-one]								A (12.5 μM<EC75≤25 μM)	B (25 μM<EC75≤100 μM)
O=C(CN1CCN(CCc2ccccc2)CC1)N1CCN(Cc2ccccc2CO)CC1 [Example 262, Hydrochloride of 1-(4-(2-(hydroxymethyl)benzyl)piperazin-1-yl)-2-(4-phenethylpiperazin-1-yl)etban-1-one]								B (25 μM<EC75≤100 μM)	A (12.5 μM<EC75≤25 μM)

From US20250326744A1, “PIPERAZINE DERIVATIVE OR SALT THEREOF, AND PHARMACEUTICAL COMPOSITION” (priority 2022, published 2025)
